In patent US7888329B2, “Substituted aryl piperidinylalkynyladenosines as A2AR agonists” (PGxHealth, LLC, priority 2006, dated 2011):
Where two headings read alike, the source gives them in different places.

What was measured:
[1] = system: Purified human neutrophils; test: Luminol enhanced chemiluminescence (neutrophil oxidative activity), fMLP stimulated; type: cell-based
Source text: Chemiluminescence Methods: Luminol enhanced chemiluminescence, a measure of neutrophil oxidative activity, is dependent upon both superoxide production and mobilization of the granule enzyme myeloperoxidase. The light is emitted from unstable high-energy oxygen species such as hypochlorous acid and singlet oxygen generated by activated neutrophils.
Purified human neutrophils (2×10^6/ml) suspended in Hanks balanced salt solution containing 0.1% human serum albumin (HA), adenosine deaminase (1 U/mL) and rolipram (100 nM) were incubated (37 C) in a water bath for 15 min with or without rhTNF (10 U/ml). Following incubation 100 µL aliquots of the PMN were transferred to wells (White walled clear bottom 96 well tissue culture plates Costar #3670; 2 wells/condition) containing […] and luminol (final concentration 100M) with or without adenosine agonist (final agonist concentrations 0.01-1000 nM). The plate was incubated 5 min (37 C) and then fMLP (50 l in HA; final concentration […]) was added to all wells.
Peak chemiluminescence was determined with a Victor 1420 Multilabel Counter in the chemiluminescence mode using the Wallac Workstation software. Data are presented as peak chemiluminescence as percent of activity in the absence of an adenosine agonist. The EC50 was determined using PRISM software. All compounds were tested with PMNs from three separate donors.

[2] = biological target: T1, recombinant human A2A receptors (Homo sapiens, UniProt P29274); test: Radioligand competition binding with 125I-APE or 125I-ZM241385, Sf9 cell membranes; settings: 125I-APE or 125I-ZM241385, Sf9 membranes; class symbols
T1 construct: expressed in transfected cells; host or cells: Sf9 insect cells infected with virus; membranes
T1 sequence (P29274 whole entry): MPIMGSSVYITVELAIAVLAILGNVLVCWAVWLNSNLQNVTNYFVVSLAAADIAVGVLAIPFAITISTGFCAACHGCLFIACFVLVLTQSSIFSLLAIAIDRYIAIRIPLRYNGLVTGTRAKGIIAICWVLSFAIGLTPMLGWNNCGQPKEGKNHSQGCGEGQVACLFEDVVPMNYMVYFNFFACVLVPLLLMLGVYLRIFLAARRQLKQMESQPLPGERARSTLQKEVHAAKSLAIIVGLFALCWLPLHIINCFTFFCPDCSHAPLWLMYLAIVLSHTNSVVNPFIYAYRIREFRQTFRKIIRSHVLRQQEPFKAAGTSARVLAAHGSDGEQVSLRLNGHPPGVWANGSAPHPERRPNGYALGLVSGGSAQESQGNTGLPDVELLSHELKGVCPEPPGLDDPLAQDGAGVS
Protocol: Cell culture and membrane preparation. Sf9 cells were cultured in Grace's medium supplemented with 10% fetal bovine serum, 2.5 μg/ml amphotericin B and 50 μg/ml gentamycin in an atmosphere of 50% N2/50% O2. Viral infection was performed at a density of 2.5×10^6 cells/mL with a multiplicity of infection of two for each virus used. Infected cells were harvested 3 days post-infection and washed twice in insect PBS (PBS pH 6.3). Cells were then resuspended in lysis buffer (20 mM HEPES pH 7.5, 150 mM NaCl, 3 mM MgCl2, 1 mM α-mercaptoethanol (BME), 5 μg/mL leupeptin, 5 μg/mL pepstatin A, 1 μg/mL aprotinin, and 0.1 mM PMSF) and snap frozen for storage at −80° C. Cells were thawed on ice, brought to 30 mL total volume in lysis buffer, and burst by N2 cavitation (600 psi for 20 minutes). A low-speed centrifugation was performed to remove any unlysed cells (1000×g for 10 minutes), followed by a high-speed centrifugation (17,000×g for 30 minutes). The pellet from the final centrifugation was homogenized in buffer containing 20 mM HEPES pH 8, 1100 mM NaCl, 1% glycerol, 2 μg/mL leupeptin, 2 μg/mL pepstatin A, 2 μg/mL Aprotinin, 0.1 mM PMSF, and 10 μM GDP using a small glass homogenizer followed by passage through a 26 gauge needle. Membranes were aliquoted, snap frozen in liquid N2, and stored at −80° C.
Radioligand Binding Assays. […] Binding experiments were performed in triplicate with 5 μg (A2A) or 25 μg (A1 and A3) membrane protein in a total volume of 00.1 mL HE buffer (20 mM HEPES and 1 mM EDTA) with 1 U/mL adenosine deaminase and 5 mM MgCl2 with or without 50 μM GTPγS. Membranes were incubated with radioligands at room temperature for three hours (for agonists) or two hours (for antagonists) in Millipore Multiscreen® 96-well GF/C filter plates and assays were terminated by rapid filtration on a cell harvester (Brandel, Gaithersburg, Md.) followed by 4×150 μl washes over 30 seconds with ice cold 10 mM Tris-HCl, pH 7.4, 10 mM MgCl2. Nonspecific binding was measured in the presence of 50 μM NECA.

human A1 AR = biological target: T2, human A1 AR (Homo sapiens, UniProt P30542); test: Radioligand competition binding with 125I-ABA, membranes of CHO K1 cells stably expressing the receptor; settings: Ki derived from IC50, class symbols
T2 construct: expressed in transfected cells; membranes
T2 sequence (P30542 1-326): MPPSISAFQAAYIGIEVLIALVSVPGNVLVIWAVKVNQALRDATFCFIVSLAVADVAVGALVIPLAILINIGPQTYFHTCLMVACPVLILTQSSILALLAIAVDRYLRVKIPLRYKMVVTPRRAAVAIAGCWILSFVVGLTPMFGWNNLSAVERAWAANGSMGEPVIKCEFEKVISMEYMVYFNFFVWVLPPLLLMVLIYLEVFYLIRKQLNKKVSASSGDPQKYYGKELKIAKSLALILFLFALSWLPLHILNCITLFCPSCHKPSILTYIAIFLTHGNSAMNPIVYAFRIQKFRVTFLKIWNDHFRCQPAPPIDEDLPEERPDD

human A3 AR = biological target: T3, human A3 AR (Homo sapiens, UniProt P0DMS8); test: Radioligand competition binding with 125I-ABA, membranes of HEK 293 cells stably expressing the receptor; settings: Ki derived from IC50, class symbols
T3 construct: expressed in transfected cells; membranes
T3 sequence (P0DMS8 1-318): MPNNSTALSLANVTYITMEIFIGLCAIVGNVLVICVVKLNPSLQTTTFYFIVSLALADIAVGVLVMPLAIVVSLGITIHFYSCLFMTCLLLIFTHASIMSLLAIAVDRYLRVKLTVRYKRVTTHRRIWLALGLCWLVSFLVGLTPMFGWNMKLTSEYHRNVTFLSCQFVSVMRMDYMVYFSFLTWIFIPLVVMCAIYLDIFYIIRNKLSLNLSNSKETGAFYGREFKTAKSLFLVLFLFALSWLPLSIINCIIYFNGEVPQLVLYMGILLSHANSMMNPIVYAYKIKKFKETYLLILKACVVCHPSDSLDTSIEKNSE
Protocol: Cell culture and membrane preparation. Sf9 cells were cultured in Grace's medium supplemented with 10% fetal bovine serum, 2.5 μg/ml amphotericin B and 50 μg/ml gentamycin in an atmosphere of 50% N2/50% O2. Viral infection was performed at a density of 2.5×10^6 cells/mL with a multiplicity of infection of two for each virus used. Infected cells were harvested 3 days post-infection and washed twice in insect PBS (PBS pH 6.3). Cells were then resuspended in lysis buffer (20 mM HEPES pH 7.5, 150 mM NaCl, 3 mM MgCl2, 1 mM α-mercaptoethanol (BME), 5 μg/mL leupeptin, 5 μg/mL pepstatin A, 1 μg/mL aprotinin, and 0.1 mM PMSF) and snap frozen for storage at −80° C. Cells were thawed on ice, brought to 30 mL total volume in lysis buffer, and burst by N2 cavitation (600 psi for 20 minutes). A low-speed centrifugation was performed to remove any unlysed cells (1000×g for 10 minutes), followed by a high-speed centrifugation (17,000×g for 30 minutes). The pellet from the final centrifugation was homogenized in buffer containing 20 mM HEPES pH 8, 1100 mM NaCl, 1% glycerol, 2 μg/mL leupeptin, 2 μg/mL pepstatin A, 2 μg/mL Aprotinin, 0.1 mM PMSF, and 10 μM GDP using a small glass homogenizer followed by passage through a 26 gauge needle. Membranes were aliquoted, snap frozen in liquid N2, and stored at −80° C. Membranes from cells stably expressing the human A1 AR (CHO K1 cells) or A3 AR (HEK 293 cells) were prepared as described (Robeva et al., 1996).
Radioligand Binding Assays. Radioligand binding to recombinant human A2A receptors in Sf9 cell membranes was performed using either the radiolabeled agonist, ^125I-APE (Luthin et al., 1995) or the radiolabeled antagonist, ^125I-ZM241385 (^125I-ZM). To detect the high affinity, GTPγS-sensitive state of A1 and A3 AR, we used the agonist, ^125I-ABA (Linden et al., 1985; Linden et al., 1993). Binding experiments were performed in triplicate with 5 μg (A2A) or 25 μg (A1 and A3) membrane protein in a total volume of 00.1 mL HE buffer (20 mM HEPES and 1 mM EDTA) with 1 U/mL adenosine deaminase and 5 mM MgCl2 with or without 50 μM GTPγS. Membranes were incubated with radioligands at room temperature for three hours (for agonists) or two hours (for antagonists) in Millipore Multiscreen® 96-well GF/C filter plates and assays were terminated by rapid filtration on a cell harvester (Brandel, Gaithersburg, Md.) followed by 4×150 μl washes over 30 seconds with ice cold 10 mM Tris-HCl, pH 7.4, 10 mM MgCl2. Nonspecific binding was measured in the presence of 50 μM NECA. Competition binding assays were performed as described (Robeva et al., 1996) using 0.5-1 nM ^125I-APE, ^125I-ZM241385, or ^125I-ABA. […] The Ki values for competing compound binding to a single site were derived from IC50 values with correction for radioligand and competing compound depletion as described previously (Linden, 1982).

[3] = Homo sapiens, Neutrophil, read-out: Functional

Row | SMILES | EC50 [1, 3] [nM] | Ki [2] [µM] | Ki (human A1 AR) [µM] | Ki (human A3 AR) [µM] | EC50 ([1]; EC50 of peak chemiluminescence, human PMN, rolipram 100 nM, fMLP, three donors, class symbols, read-out: Functional) [nM] | EC50 ([1]; Homo sapiens, Neutrophil, read-out: Functional (nM)) [nM]
1 | Nc1nc(C#CCC2CCN(C(=O)OCc3ccc([N+](=O)[O-])cc3)CC2)nc2c1ncn2[C@@H]1O[C@H](CO)[C@@H](O)[C@H]1O [Compound 30, 2-{3-[1-((4-Nitro)benzyloxycarbanoyl)piperidin-4-yl]propyn-1-yl}adenosine] | < 10 | < 0.01 | < 0.1 | < 0.1 |  | 
2 | N=C(Oc1ccc(Cl)cc1)N1CCC(CC#Cc2nc(N)c3ncn([C@@H]4O[C@H](C(=O)NC5CC5)[C@@H](O)[C@H]4O)c3n2)CC1 [Compound 42, N-Cyclopropyl 2-{3-[1-(4-chlorophenyloxycarboxymidyl)-4-piperidinyl]-1-propyn-1-yl}adenosine-5′-uronamide] |  | < 0.01 | > 0.1 | > 0.1 | > 100 | 
3 | Nc1nc(C#CCC2CCN(C(=O)Oc3ccccc3Cl)CC2)nc2c1ncn2[C@@H]1O[C@H](C(=O)NC2CC2)C(O)[C@@H]1O (some centres unmarked) [Compound 22, N-Cyclopropyl 2-{3-[1-(2-chlorophenyloxycarbonyl)-4-piperidinyl]-1-propyn-1-yl}adenosine-5′-uronamide] | < 10 | < 0.001 | < 0.1 | > 0.1 |  | 
4 | Cc1ccc(OC(=O)N2CCC(CC#Cc3nc(N)c4ncn([C@@H]5O[C@H](C(=O)NC6CC6)C(O)[C@@H]5O)c4n3)CC2)cc1 (some centres unmarked) [Compound 20, N-Cyclopropyl 2-{3-[1-(4-methylphenyloxycarbonyl)-4-piperidinyl]-1-propyn-1-yl}adenosine-5′-uronamide] | < 1 | < 0.001 | < 0.1 | > 0.1 |  | 
5 | CCNC(=O)[C@H]1O[C@@H](n2cnc3c(N)nc(C#CCC4CCN(C(=O)OCc5ccccc5)CC4)nc32)[C@@H](O)C1O (some centres unmarked) [Compound 32, N-Ethyl 2-{3-[1-(benzyloxycarbonyl)-4-piperidinyl]-1-propyn-1-yl}adenosine-5′-uronamide, reference compound] | < 10 | < 0.001 | > 0.1 | < 0.1 |  | 
6 | Nc1nc(C#CCC2CCN(C(=O)Oc3ccc([N+](=O)[O-])cc3)CC2)nc2c1ncn2[C@@H]1O[C@H](C(=O)NC2CC2)C(O)[C@@H]1O (some centres unmarked) [Compound 10, N-Cyclopropyl 2-{3-[1-(4-nitrophenyloxycarbonyl)-4-piperidinyl]-1-propyn-1-yl}adenosine-5′-uronamide] | < 1 | < 0.001 | < 0.1 | < 0.1 |  | 
7 | Nc1nc(C#CCC2CCN(C(=O)Oc3ccccc3)CC2)nc2c1ncn2[C@@H]1O[C@H](CO)[C@@H](O)[C@H]1O [Compound 4, 2-{3-[1-(Phenoxycarbonyl)piperidin-4-yl]propyn-1-yl}adenosine, reference compound] | < 10 | < 0.001 | < 0.1 | < 0.01 |  | 
8 | Nc1nc(C#CCC2CCN(C(=O)OCCOCc3ccccc3)CC2)nc2c1ncn2[C@@H]1O[C@H](C(=O)NC2CC2)C(O)[C@@H]1O (some centres unmarked) [Compound 5, N-Cyclopropyl 2-{3-[1-(2-(benzyloxy)ethoxycarbonoyl)-4-piperidinyl]-1-propyn-1-yl}adenosine-5′-uronamide] | < 10 | < 0.001 | < 0.1 | < 0.1 |  | 
9 | Nc1nc(C#CCC2CCN(C(=O)Oc3ccc(Cl)cc3)CC2)nc2c1ncn2[C@@H]1O[C@H](CO)[C@@H](O)[C@H]1O [Compound 27, 2-{3-[1-((4-Chloro)phenoxycarbanoyl)piperidin-4-yl]propyn-1-yl}adenosine] | < 10 | < 0.001 | < 0.1 | < 0.1 |  | 
10 | Cc1ccc(OC(=O)N2CCC(CCCc3nc(N)c4ncn([C@@H]5O[C@H](C(=O)NC6CC6)C(O)[C@@H]5O)c4n3)CC2)cc1 (some centres unmarked) [Compound 39] |  | < 0.1 | > 0.1 | > 0.1 |  | < 100
11 | COc1ccc(OC(=O)N2CCC(CC#Cc3nc(N)c4ncn([C@@H]5O[C@H](C(=O)NC6CC6)C(O)[C@@H]5O)c4n3)CC2)cc1 (some centres unmarked) [Compound 23] | < 1 | < 0.001 | < 0.1 | < 0.1 |  | 
